From patent US20020009436A1, “Methods and compositions for inhibiting adhesion by microorganisms” (priority 1999, published 2002) come the findings set out here.

Where two headings read alike, the source gives them in different places.

In assay [1] the test system is polyphenol oxidase. The assay is described as follows: Effect of inhibiting polyphenol oxidase activity on dextran aggregation. It is filed as cell-based. To be noted: for effect on polyphenol oxidase induced inactivation: protease inhibitors added before polyphenol oxidase. The method, then:
(§1) The standard rate assay published by Drake et al. (Drake D. et al. Infect. Immun. 56:1864-1872 (1988)) was used to study the interaction of S. sobrinus 6715 glucan-binding lectin with high molecular weight dextran. Briefly, bacterial suspensions were adjusted to an optical density of 0.75-0.90 in PBS, and 3-ml suspensions were added to test tubes (13×100 mm). Dextran T-2000 was added at a final concentration of 10 1μg/ml and the suspensions were vortexed for 5 sec. Control tubes received PBS. The decrease in optical density was continuously monitored spectrophotometrically for 5 min. Rate constants were obtained from the slopes of first-order plots of ln A/A0 (A=observed optical density; A0 optical density at time zero) versus time in minutes. Each sample was assayed at least three times.
Cells were suspended in phosphate buffer (20 mM, pH 6.5) and treated with either polyphenol oxidase (Worthington Biochemical Corporation, Freehold N.J., Lot 37A889) (1260 U/ml) for 1 h at 37° C. with rotary shaking (150 rev/min), then washed twice with cold PBS. Inhibitors (all from Sigma), when present, were added before polyphenol oxidase addition at the following concentrations: phenylmethylsulfonyl fluoride (PMSF) 500 μM; leupeptin, 500 μg/ml; ethylenediaminetetracetic acid (EDTA), 5 mM, potassium chloride 200 mM; polyvinylpyrrolidone, 500 μg/m; ascorbic acid, 3 mM; lactic acid, 10%.

Assay [2] deals with polyphenol oxidase. Described as above. It is filed as cell-based. To be noted: inhibitor concentration 2.5%.
The test system of assay [3] is E. coli possessing type 1 fimbriae / Saccharomyces cerevisiae cells. Kind of assay: Adhesion of E. coli to yeast. It counts as cell-based. The method, then: Materials and methods were generally as described in the previous Examples, but slightly modified for observing adhesion by E. coli to yeast. […] Cells were washed 2× in PBS and suspended in PB. Cells were treated with polyphenol oxidase at 37° C., washed 2×, and resuspended in PBS. E. coli (5×10^8 cells) were incubated with 1×10^5 Saccharomyces cerevisiae cells in a 3 ml volume and rotated with an end-over-end motion at 37° C. for 30 min. Suspensions were harvested, washed 2× in PBS and resuspended in 300 μl PBS. Methyl-α-D-mannose was added to some reaction mixtures. Ten μl samples were withdrawn and placed on a microscope slide, heat-fixed, stained with crystal violet for 2 min, rinsed and dried. Preparations were viewed at 1000× with phase-contrast microscopy. Numbers of bacteria bound to yeast cells were tabulated.

For assay [4], the system named is type 1-fimbriated and P-fimbriated E. coli. The assay is described as follows: Growth inhibition of E. coli. It is filed as cell-based. To be noted: ampicillin 1 mg/ml to 0.015 mg/ml; polyphenol oxidase 1128 to 17.5 units/ml; asparaginase 20 to 0.31 units/ml; data not shown. The method, then:
Similar and/or art recognized methods were used to monitor the effects of asparaginase on growth of other microbes including two strains of E. coli, S. pyogenes, Klebsiella pneumoniae, Bacillus cereus, and Proteus vulgaris. Both type 1-fimbriated and P-fimbriated E. coli were incubated with polyphenol oxidase, asparaginase, and ampicillin to test the ability of these agents to inhibit the growth of the bacteria.

Assay [5] has as its system B. fragilis (adhesin) / A. naeslundii ATCC 12104 (receptor). The assay is described as follows: Coaggregation B. fragilis / A. naeslundii ATCC 12104. To be noted: B. fragilis (adhesin) enzyme treated; polyphenol oxidase 90 U/ml.
Protocol: S. sanguis 10556, A. naeslundii strains 12104 and T14V and E. coli were grown static cultures in Todd-Hewitt broth (BBL Microbiology Systems, Cockeysville, Md.). P. gingivalis W50, A. actinomycetemcomitans and C. ochracea were grown in brain heart infusion broth (BBL). F. nucleatum 22586 and P. intermedia 25611 were grown in modified Schaedler broth (BBL). All oral species except S. sanguis 10556 were incubated at 37° C. as static cultures under an anaerobic atmosphere containing H2, CO2 and N2(10:10:80) with GasPaks (BBL). S. sanguis was incubated at 37° C. as static cultures in 5% CO2.
Bacteria were harvested in the mid to late exponential growth phase by centrifugation (10,000×g for 10 min at 4° C.). The cells were washed twice in coaggregation buffer (30 mM 3-[N-morpholino]propanesulfonic acid (MOPS), pH 7.0) and adjusted to an optical density of 0.6-0.8 at 540 nm (1-cm path). […]
Coaggregation was assessed by turbidity changes. Following mixing of the cells for 10 s on a Vortex mixer, absorbance readings were made every 30 min. The percentage of coaggregation was calculated from the following formula: Percent coaggregation=[OD540(A)+OD540(B)−OD540(A+B)]/(OD540(A)+OD540(B)), where A is the control containing cells of one strain, B is the control containing cells of the other strain, and A+B is the reaction mixture containing both cells. […]
In assay [6] the test system is S. sobrinus 6715 glucan-binding lectin. Kind of assay: Aggregation of S. sobrinus with high molecular weight dextran T-2000 (standard rate assay). It is filed as cell-based, Streptococcus sobrinus. To be noted: dextran T-10 1 mg/ml or glycogen 2.5 mg/ml before polyphenol oxidase treatment. The method, then: S. sobrinus 6715 was maintained on tryptic soy agar (Difco, Detroit, Mich.) and grown for experiments in Terleckyj's defined medium or tryptic soy broth (TSB) (Difco) pretreated with dextranase (1 mg of enzyme per g dry medium) and invertase (5 mg per g dry medium) for 2 h each in 5% CO2 at 37° C. for 16-18h. Cultures were centrifuged at 12,000×g for 10 min and washed twice with cold phosphate buffered saline (PBS, 20 mM, pH 7.2). Cells were suspended in PBS to an optical density of 0.8 (A540). Cultures grown in TSB were harvested and suspended in PBS and subsequently treated with dextranase for 1 h, followed by washing two times in PBS.
as §1, with “Each sample was assayed at least three times.” left out

Where [7] appears, read: known polyphenol oxidase inhibitors.

For `O=C(O)CN(CCN(CC(=O)O)CC(=O)O)CC(=O)O` [EDTA, ethylenediaminetetracetic acid], in the assay with polyphenol oxidase [1], the “Percent Inhibition of Polyphenol Oxidase Induced Reduction in Aggregation” value was determined as 100% and the “effect on the effects of polyphenol oxidase on glucan aggregation” value (shortened to “effect on the effects”) is recorded as “reduced the effects”.
`[Cl-].[K+]` [KCl, potassium chloride]: the “effect on the effects” value with polyphenol oxidase [1] (setting [7]) was “reduced the effects”. Besides, the “Percent Inhibition of Polyphenol Oxidase Induced Reduction in Aggregation” value in the assay on polyphenol oxidase [2] is given as 100%.
For the compound `COC1OC(CO)C(O)C(O)C1O` [Methyl-α-mannose, Methyl-α-D-mannose], the “effect of preincubating E. coli before polyphenol oxidase treatment” value in assay [3] is recorded as “eliminated polyphenol oxidase mediated reduction of adhesion”. Also, in assay [3] (added to control cells), the “attachment of control cells to Saccharomyces” value is “prevented their attachment”.
In the case of `O=S(=O)(F)Cc1ccccc1` [PMSF, phenylmethylsulfonyl fluoride], the “Percent Inhibition of Polyphenol Oxidase Induced Reduction in Aggregation” value in the assay on polyphenol oxidase [1] (inhibitor concentration 500 μM) came out at 0%. For the same compound, the “effect on polyphenol oxidase induced inactivation” value in the assay with polyphenol oxidase [1] is given as “completely inhibited”.
Regarding `CC1(C)S[C@@H]2[C@H](NC(=O)[C@H](N)c3ccccc3)C(=O)N2[C@H]1C(=O)O` [ampicillin, reference compound], in assay [4], the “inhibition of growth of P-fimbriated E. coli” value is reported as “inhibited the growth” and the “inhibition of growth of type 1-fimbriated E. coli” value is given as “inhibited the growth”.
Consider `O=C1O[C@H]([C@@H](O)CO)C(O)=C1O` [ascorbic acid], for which, in the assay on polyphenol oxidase [1] (inhibitor concentration 3 mM), the “Percent Inhibition of Polyphenol Oxidase Induced Reduction in Aggregation” value is listed as 100%. Also, the “effect on the effects” value in the assay on polyphenol oxidase [1] (setting [7]) was “reduced the effects”.
For `CC(O)C(=O)O` (stereo not drawn) [lactic acid], in the assay on polyphenol oxidase [1] (inhibitor concentration 10%), the “Percent Inhibition of Polyphenol Oxidase Induced Reduction in Aggregation” value is reported as 92 (+/−8) Percent. For the same compound, the “effect on the effects” value in the assay with polyphenol oxidase [1] (setting [7]) was “reduced the effects”.
As to `CC(=O)N[C@@H](CC(C)C)C(=O)N[C@@H](CC(C)C)C(=O)N[C@H](C=O)CCCNC(=N)N` [leupeptin], the “Percent Inhibition of Polyphenol Oxidase Induced Reduction in Aggregation” value with polyphenol oxidase [1] (inhibitor concentration 500 μg/ml) worked out at 0%. Further, the “effect on polyphenol oxidase induced inactivation” value with polyphenol oxidase [1] is listed as “completely inhibited”.
On to Per: horseradish peroxidase, for which the “Inhibition % of coaggregation” value in assay [5] stood at 11%.
Turning to glycogen [reference compound], the “effect of pre-incubating the bacteria with carbohydrate on the polyphenol oxidase inhibition of aggregation” value in assay [6] is given as “no effect”.
